Values joined by “and” are separate entries in the source; they are usually repeats but may differ in a detail not shown here. Identical values can stand only once. “Also recorded” adds a separate entry of the source. Like-named read-outs stand apart in the source and are kept apart here.
What was measured:
[1] = dulbecco's phosphate buffered saline
System L = biological target: T1, System L (Mus musculus, UniProt Q9Z127); type: cell-based, murine
T1 construct: Murine L1210 Leukemia cells were grown in RPMI 1630 medium; endogenous in cells; host or cells: murine L1210 leukemia cells

murine CFU-C = conditions: for CC90: mouse, bone marrow cfu-c, 0.75 h
[2] = system: murine L1210 leukemia cells; type: cell-based; conditions: for IC90: l1210 cells, 45 min, read-out: LD90, murine L1210 leukemia cells (antitumor activity)
[3] = read-out: KI, inhibition of initial rate of transport of BCH
[4] = read-out: Ki, competitive inhibition of BCH transport

T1 sequence (Q9Z127 whole entry): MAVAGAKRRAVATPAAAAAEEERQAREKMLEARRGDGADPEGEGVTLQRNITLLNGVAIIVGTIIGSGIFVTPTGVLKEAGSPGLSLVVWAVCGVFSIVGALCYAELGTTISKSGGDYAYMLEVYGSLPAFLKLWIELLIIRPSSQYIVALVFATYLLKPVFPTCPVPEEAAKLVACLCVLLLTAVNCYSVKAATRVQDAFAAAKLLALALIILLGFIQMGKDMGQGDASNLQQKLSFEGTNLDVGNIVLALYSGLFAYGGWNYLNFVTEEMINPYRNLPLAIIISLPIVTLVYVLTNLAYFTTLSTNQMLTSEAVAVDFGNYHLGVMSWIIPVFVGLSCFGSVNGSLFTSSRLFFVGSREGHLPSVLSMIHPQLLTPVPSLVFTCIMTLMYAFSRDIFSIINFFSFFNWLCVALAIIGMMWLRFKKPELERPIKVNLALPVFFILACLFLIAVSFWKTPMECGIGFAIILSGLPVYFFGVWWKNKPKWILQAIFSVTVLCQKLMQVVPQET
T1 sequence (P10852 whole entry partner): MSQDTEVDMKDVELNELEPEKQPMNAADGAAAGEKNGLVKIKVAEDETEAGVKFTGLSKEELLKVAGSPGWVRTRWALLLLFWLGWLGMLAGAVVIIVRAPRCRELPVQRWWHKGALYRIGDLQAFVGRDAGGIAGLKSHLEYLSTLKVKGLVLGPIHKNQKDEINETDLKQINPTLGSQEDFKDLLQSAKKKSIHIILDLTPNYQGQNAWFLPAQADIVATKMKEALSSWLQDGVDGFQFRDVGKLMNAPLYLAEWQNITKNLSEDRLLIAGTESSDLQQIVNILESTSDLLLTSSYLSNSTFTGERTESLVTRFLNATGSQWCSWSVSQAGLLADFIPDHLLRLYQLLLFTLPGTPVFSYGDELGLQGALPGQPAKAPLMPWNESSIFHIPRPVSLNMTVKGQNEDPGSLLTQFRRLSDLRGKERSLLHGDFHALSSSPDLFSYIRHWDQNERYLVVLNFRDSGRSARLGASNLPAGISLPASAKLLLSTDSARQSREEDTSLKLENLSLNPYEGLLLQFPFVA

Row | Compound | half life (t1/2) [1] | KI lower / affinity for System L greater than that of L-phenylalanine mustard (System L) | inhibition of System L (in words) (System L) | more effective inhibitor of System L than BCH (System L) | more potent than 2-amino-1,2,3,4-tetrahydro-2-naphthoic acid (System L) | Ki (System L; [3]) | Ki (System L; [4]) | myelosuppressive activity (in words) (murine CFU-C) | CC90 (murine CFU-C) | antitumor activity (in words) [2] | improvement in therapeutic index [2] | IC90 [2]
1 | NC1(C(=O)O)CCc2ccc(N(CCCl)CCCl)cc2C1 (racemic) [Compound 6, DL-2-Amino-7-bis(2-chloroethyl)amino-1,2,3,4-tetrahydro-2-naphthoic acid] | approximately 40 minutes | 500 fold | extremely potent competitive inhibitor; also recorded: most potent inhibitor of System L | 25-50 fold | approximately 40 fold | ~0.2 µM | 0.22 µM | reduced myelosuppressive activity | 23.8 µM | enhanced antitumor activity | 2-2.5 fold and 2 fold | 26.5 µM
2 | NC1(C(=O)O)CCc2c(cccc2N(CCCl)CCCl)C1 (racemic) [Compound 7, DL-2-Amino-5-bis-(2-chloroethyl) amino-1,2,3,4-tetrahydro-2-naphthoic acid] | – | – | weaker inhibitor | – | – | 15.2 µM | – | – | – | – | – | –
3 | L-phenylalanine mustard [L-PAM, reference compound] | – | – | – | – | – | – | 112 µM | – | 14 µM | – | – | 35 µM

From US5284774A (priority 1991, dated 1994)
